Patent publication US7223754B2, “Thiazolidinone, oxazolidinone, and imidazolone derivatives for treating lower urinary tract and related disorders” (Dynogen Pharmaceuticals, Inc., priority 2003, dated 2007)

What was measured:
HVA calcium channels = format: cell-based, rat; settings: n=4; 1 µM
[1] = tested on: Female Sprague-Dawley rats; settings: rat, in vivo

Omega-conotoxin GVIA
calcium current amplitudes, % of control amplitudes (HVA calcium channels): 72.8±1.6%

ω-Conotoxin MVIIA
bladder capacity versus irritation control, Dunn's MCT [1]: significantly different than irritation control | directly measured bladder capacity, % of control values [1]: 69% | effects on other micturition parameters, such as voiding efficiency [1]: no untoward effects on other micturition parameters | intermicturition interval versus irritation control (AA/Veh 3), Dunn's multiple comparison test [1]: significantly different than irritation control | intermicturition interval, % of pre-irritation control values [1]: 81%
